Assay: Plasma pharmacokinetics after single oral dose of Δ8-THCV in MCT oil (LC-MS/MS, non-compartmental analysis)
Assay type: in vivo, human
Set-up: Clast (last quantifiable concentration): unit not given here
Details: for Clast (last quantifiable concentration) / tlast (time to last quantifiable concentration) / concentration at 0.5 h / concentration at 1 h / concentration at 2 h / concentration at 4 h / concentration at 6 h / concentration at 8 h: plasma; for plasma concentration: Predose; for concentration at 0.5 h / concentration at 1 h / concentration at 2 h / concentration at 4 h / concentration at 6 h / concentration at 8 h: human, oral
Description: The study was a two-phase, dose-ranging, placebo-controlled trial in 21 healthy participants to assess the safety, tolerability, PK, and PD of an oral formulation of Δ8-THCV. A detailed description of the study was published elsewhere. The study product was a medium-chain triglyceride (MCT) oil oral formulation of Δ8-THCV at a concentration of 50 mg/mL. […] MCT oil was used as placebo.
Twenty-one participants were enrolled in the clinical study and plasma samples from 15 participants were sent to our laboratory for pharmacokinetic evaluation. Of these, 3 participants were enrolled in Phase 1, an unblinded, placebo-controlled, single ascending dose design and 12 were enrolled in Phase 2, a double-blind, randomized, placebo-controlled, within-participant crossover design. At each study session, participants received one of the following oral doses: placebo, 12.5 mg, 25 mg, 50 mg, 100 mg, and 200 mg of the aforementioned Δ8-THCV formulation in MCT. Study visits were separated by a washout period of a minimum of one week and maximum of 28 days. Participants entered the research facility the night before the session and received the study product in the morning after a standardized high-fat, high-calorie breakfast. PK blood samples included in this analysis were collected prior to dosing and 0.5, 1, 2, 4, 6, and 8 h after dose. Immediately following collection into K2EDTA tubes, blood samples were placed on wet ice, centrifuged, and plasma was immediately frozen at −80 °C until shipment to the bioanalytical laboratory (iC42 Clinical Research and Development, University of Colorado, Aurora, CO, USA) on dry ice.
Plasma samples were analyzed using a validated high-performance liquid chromatography–tandem mass spectrometry (LC-MS/MS) assay. The assay included Δ8-THCV and its main metabolites 11-OH-Δ8-THCV and Δ8-THCV-COOH, Δ9-THCV and its main metabolite Δ9-THCV-COOH, and Δ9-THC and Δ8-THC as well as their main metabolites (Figure 3). The complete list of analyzed compounds and a summary of the key performance parameters of the assay are presented in Appendix A and Table A1 and Table A2. […] For the PK analysis, concentrations below the lower limit of quantification were set to 0 ng/mL. PK parameters were calculated using non-compartmental analysis (Phoenix WinNonlin version 8.4., Certara, Princeton, NJ, USA). Statistical analysis was carried out using GraphPad Prism (version 10, Boston, MA, USA).

[1] = 12.5 mg single oral Δ8-THCV in MCT oil, Mean (±SD)
[2] = 12.5 mg single oral Δ8-THCV in MCT oil, Median (Range)
[3] = 25 mg single oral Δ8-THCV in MCT oil, Mean (±SD)
[4] = 25 mg single oral Δ8-THCV in MCT oil, Median (Range)
[5] = 50 mg single oral Δ8-THCV in MCT oil, Mean (±SD)
[6] = 50 mg single oral Δ8-THCV in MCT oil, Median (Range)
[7] = 100 mg single oral Δ8-THCV in MCT oil, Mean (±SD)
[8] = 100 mg single oral Δ8-THCV in MCT oil, Median (Range)
[9] = 200 mg single oral Δ8-THCV in MCT oil, Mean (±SD)
[10] = 200 mg single oral Δ8-THCV in MCT oil, Median (Range)
[11] = 12.5 mg, 12.5 mg Δ8-THCV dose, Mean (SD, %CV)
[12] = 12.5 mg, 12.5 mg Δ8-THCV dose, Median (IQ Range)
[13] = 25 mg, 25 mg Δ8-THCV dose, Mean (SD, %CV)
[14] = 25 mg, 25 mg Δ8-THCV dose, Median (IQ Range)
[15] = 50 mg, 50 mg Δ8-THCV dose, Mean (SD, %CV)
[16] = 50 mg, 50 mg Δ8-THCV dose, Median (IQ Range)

SMILES: CCCc1cc(O)c2c(c1)OC(C)(C)[C@@H]1CC=C(C(=O)O)C[C@@H]21 [Δ8-THCV-COOH, 11-nor-9-carboxy-Δ8-THCV]
- Clast (last quantifiable concentration) [1]: 46.8 (±23)
- tlast (time to last quantifiable concentration) [1]: 8 (±0)
- Clast (last quantifiable concentration) [2]: 38.2 (20.1–102)
- tlast (time to last quantifiable concentration) [2]: 8 (8–8)
- Clast (last quantifiable concentration) [3]: 71.6 (±33.8)
- tlast (time to last quantifiable concentration) [3]: 8 (±0)
- Clast (last quantifiable concentration) [4]: 78.3 (25.5–146)
- tlast (time to last quantifiable concentration) [4]: 8 (8–8)
- Clast (last quantifiable concentration) [5]: 166 (±60.3)
- tlast (time to last quantifiable concentration) [5]: 8 (±0)
- Clast (last quantifiable concentration) [6]: 148 (78.9–264)
- tlast (time to last quantifiable concentration) [6]: 8 (8–8)
- Clast (last quantifiable concentration) [7]: 319 (±118)
- tlast (time to last quantifiable concentration) [7]: 8 (±0)
- Clast (last quantifiable concentration) [8]: 304 (153–590)
- tlast (time to last quantifiable concentration) [8]: 8 (8–8)
- Clast (last quantifiable concentration) [9]: 917 (±582)
- tlast (time to last quantifiable concentration) [9]: 8 (±0)
- Clast (last quantifiable concentration) [10]: 855 (364–2402)
- tlast (time to last quantifiable concentration) [10]: 8 (8–8)
- plasma concentration (12.5 mg Δ8-THCV dose, Mean (SD, %CV)): 0.2 (±0.4, 267) ng/mL
- plasma concentration (12.5 mg Δ8-THCV dose, Median (IQ Range)): 0 (0–0) ng/mL
- plasma concentration (25 mg Δ8-THCV dose, Mean (SD, %CV)): 0.3 (±1, 374) ng/mL
- plasma concentration (25 mg Δ8-THCV dose, Median (IQ Range)): 0 (0–0) ng/mL
- plasma concentration (50 mg Δ8-THCV dose, Mean (SD, %CV)): 0.8 (±1.6, 187) ng/mL
- plasma concentration (50 mg Δ8-THCV dose, Median (IQ Range)): 0 (0–0.9) ng/mL
- plasma concentration (100 mg Δ8-THCV dose, Mean (SD, %CV)): 0.5 (±0.8, 166) ng/mL
- plasma concentration (100 mg Δ8-THCV dose, Median (IQ Range)): 0 (0–1) ng/mL
- plasma concentration (200 mg Δ8-THCV dose, Mean (SD, %CV)): 0.1 (±0.3, 387) ng/mL
- plasma concentration (200 mg Δ8-THCV dose, Median (IQ Range)): 0 (0–0) ng/mL
- median AUClast ratio Δ8-THCV-COOH/Δ8-THCV/11-OH-Δ8-THCV (after the 200 mg dose, Δ8-THCV = 1): 36
- concentration at 0.5 h [11]: 0.4 ng/mL
- concentration at 0.5 h [12]: 0 ng/mL
- concentration at 1 h [11]: 15 ng/mL
- concentration at 1 h [12]: 3 ng/mL
- concentration at 2 h [11]: 30.1 ng/mL
- concentration at 2 h [12]: 15.5 ng/mL
- concentration at 4 h [11]: 84.6 ng/mL
- concentration at 4 h [12]: 73.1 ng/mL
- concentration at 6 h [11]: 62.2 ng/mL
- concentration at 6 h [12]: 53.3 ng/mL
- concentration at 8 h [11]: 46.8 ng/mL
- concentration at 8 h [12]: 38.2 ng/mL
- concentration at 0.5 h [13]: 2.7 ng/mL
- concentration at 0.5 h [14]: 0 ng/mL
- concentration at 1 h [13]: 28.5 ng/mL
- concentration at 1 h [14]: 7.1 ng/mL
- concentration at 2 h [13]: 54.6 ng/mL
- concentration at 2 h [14]: 55.6 ng/mL
- concentration at 4 h [13]: 136 ng/mL
- concentration at 4 h [14]: 108 ng/mL
- concentration at 6 h [13]: 96.3 ng/mL
- concentration at 6 h [14]: 82.6 ng/mL
- concentration at 8 h [13]: 71.6 ng/mL
- concentration at 8 h [14]: 78.3 ng/mL
- concentration at 0.5 h [15]: 4.7 ng/mL
- concentration at 0.5 h [16]: 1.3 ng/mL
- concentration at 1 h [15]: 27.3 ng/mL
- concentration at 1 h [16]: 4.8 ng/mL
- concentration at 2 h [15]: 84.1 ng/mL
- concentration at 2 h [16]: 26.5 ng/mL
- concentration at 4 h [15]: 214 ng/mL
- concentration at 4 h [16]: 177 ng/mL
- concentration at 6 h [15]: 233 ng/mL
- concentration at 6 h [16]: 200 ng/mL
- concentration at 8 h [15]: 166 ng/mL
- concentration at 8 h [16]: 148 ng/mL
- concentration at 0.5 h (100 mg, 100 mg Δ8-THCV dose, Mean (SD, %CV)): 13 ng/mL

Source: publication PMC11676667, “Pharmacokinetics of Oral Cannabinoid Δ8-Tetrahydrocannabivarin and Its Main Metabolites in Healthy Participants” (Pharmaceuticals, 2024)
